Measured values reported in patent US20260138976A1 (Hoffmann-La Roche Inc., priority 2022, published 2026).

Tests used:
[1] = molecular target: T1, DGKα (hDGKalpha(1-735)-N-His) (Homo sapiens, UniProt P23743); experiment: In vitro DGK inhibition assay, DGKalpha ADP Glo (in house); assay type: biochemical; conditions: 4 nM DGKα, 25 μM ATP, 125 uM DLG in liposomes, 1 hour reaction
T1 construct: hDGKalpha(1-735)-N-His; His (N); made in house; host or cells: Sf21 insect cells (baculovirus)
Summary of the method: (§1)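 ADP-Glo luminescence measured ADP formed over 1 h by Sf21-expressed full-length human enzymes: DGKα at 4 nM with 25 µM ATP, DGKζ at 2 nM with 50 µM ATP, both on 125 µM DLG in PS/PC liposomes. Dose–response used 11 threefold dilutions at 2% final DMSO.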

[2] = molecular target: T2, DGKζ (hDGKzeta(1-928)-N-His) (Homo sapiens, UniProt Q13574); experiment: In vitro DGK inhibition assay, DGKzeta ADP Glo (in house); assay type: biochemical; conditions: 2 nM DGKζ, 50 μM ATP, 125 uM DLG in liposomes, 1 hour reaction
T2 construct: hDGKzeta(1-928)-N-His; His (N); made in house; host or cells: Sf21 insect cells (baculovirus)
T2 sequence (Q13574 whole entry): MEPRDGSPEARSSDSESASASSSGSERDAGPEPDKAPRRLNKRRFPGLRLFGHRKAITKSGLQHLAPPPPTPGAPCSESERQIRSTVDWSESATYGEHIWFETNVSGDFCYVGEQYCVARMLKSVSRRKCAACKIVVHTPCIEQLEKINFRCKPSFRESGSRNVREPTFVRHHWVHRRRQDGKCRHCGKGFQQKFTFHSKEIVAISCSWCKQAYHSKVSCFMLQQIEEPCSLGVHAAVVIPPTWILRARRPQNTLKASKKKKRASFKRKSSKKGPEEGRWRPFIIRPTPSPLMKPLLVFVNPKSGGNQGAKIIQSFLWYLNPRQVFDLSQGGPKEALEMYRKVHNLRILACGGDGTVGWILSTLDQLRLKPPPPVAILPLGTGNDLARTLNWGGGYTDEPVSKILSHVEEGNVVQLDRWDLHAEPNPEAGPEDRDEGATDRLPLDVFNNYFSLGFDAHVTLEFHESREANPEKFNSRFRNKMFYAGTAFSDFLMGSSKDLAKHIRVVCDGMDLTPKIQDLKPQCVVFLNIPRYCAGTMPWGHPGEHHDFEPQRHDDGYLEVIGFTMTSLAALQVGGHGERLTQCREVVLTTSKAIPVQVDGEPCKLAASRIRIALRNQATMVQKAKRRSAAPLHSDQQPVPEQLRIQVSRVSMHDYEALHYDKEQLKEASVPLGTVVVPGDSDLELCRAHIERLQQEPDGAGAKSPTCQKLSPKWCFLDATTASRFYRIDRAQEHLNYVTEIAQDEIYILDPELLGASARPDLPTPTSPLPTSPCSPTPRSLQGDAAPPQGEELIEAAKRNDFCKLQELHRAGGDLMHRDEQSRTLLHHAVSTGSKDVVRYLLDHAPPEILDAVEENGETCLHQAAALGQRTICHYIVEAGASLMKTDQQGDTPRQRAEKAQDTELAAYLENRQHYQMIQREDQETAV
Summary of the method: as §1

primary human T-cells = experiment: IL2 secretion measurements (24 h, CD3-stimulated T-cells, PBS counter screen); assay type: cell-based; conditions: for Emax IL2 (% activation): CD3 condition, normalised to DMSO (neutral) and 20 μM reference compound A1 = 100%; for EC50: Homo sapiens, T-cell, CD3-stimulated primary human T-cells, IL2 secretion, fitted sigmoidal curve, read-out: Tcell IL2 CD3 EC50
Summary of the method: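 IL-2 secretion was measured by ProQuantum or ELISA after 24 h culture of expanded human T-cells with compound, on CD3-antibody-coated plates or PBS counter-screen plates. Dosing used 5–6 points from a 20 or 10 μM final top at 3.333-fold steps in 0.2% DMSO. EC50/Emax were scaled between DMSO and 20 μM reference A1.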

T1 sequence (P23743 whole entry): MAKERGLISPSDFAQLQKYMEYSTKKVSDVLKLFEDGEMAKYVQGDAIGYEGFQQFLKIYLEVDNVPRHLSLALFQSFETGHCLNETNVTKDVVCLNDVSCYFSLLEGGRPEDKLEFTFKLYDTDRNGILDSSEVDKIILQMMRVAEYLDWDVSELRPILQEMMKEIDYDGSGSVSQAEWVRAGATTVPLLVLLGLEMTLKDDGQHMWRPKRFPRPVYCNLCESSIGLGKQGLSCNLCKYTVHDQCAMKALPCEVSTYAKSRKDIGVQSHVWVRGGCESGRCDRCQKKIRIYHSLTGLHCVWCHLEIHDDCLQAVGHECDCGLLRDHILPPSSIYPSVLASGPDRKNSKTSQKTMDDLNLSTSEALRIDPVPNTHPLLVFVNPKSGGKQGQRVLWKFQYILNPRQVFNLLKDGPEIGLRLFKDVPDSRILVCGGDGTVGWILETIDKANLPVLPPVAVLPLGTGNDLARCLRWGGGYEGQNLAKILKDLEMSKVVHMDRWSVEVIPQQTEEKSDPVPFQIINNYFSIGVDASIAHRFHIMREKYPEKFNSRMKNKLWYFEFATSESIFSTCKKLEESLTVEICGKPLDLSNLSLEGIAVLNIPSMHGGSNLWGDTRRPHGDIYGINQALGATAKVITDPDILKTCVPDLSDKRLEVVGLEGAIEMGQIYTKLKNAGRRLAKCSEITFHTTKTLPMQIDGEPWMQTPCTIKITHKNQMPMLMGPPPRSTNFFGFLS

Compound | IC50 [1] [µM] | IC50 [2] [nM] | Emax IL2 (% activation) (primary human T-cells) | EC50 (primary human T-cells) [nM]
N[C@H]1CS(=O)(=O)c2cc(F)c(-c3noc(N4CCOC(F)(F)C4)n3)cc2N(Cc2ccc(-c3noc(C(F)(F)F)n3)nc2)C1=O [Example 12, (3R)-3-amino-7-[5-(2,2-difluoromorpholin-4-yl)-1,2,4-oxadiazol-3-yl]-8-fluoro-1,1-dioxo-5-[[6-[5-(trifluoromethyl)-1,2,4-oxadiazol-3-yl]-3-pyridyl]methyl]-2,3-dihydro-1λ^6,5-benzothiazepin-4-one] | 3.04 | 169 | 167 | 3050
N[C@H]1CS(=O)(=O)c2cc(F)c(-c3noc(N4CCOC(F)(F)C4)n3)cc2N(Cc2ccc(-c3ccc(C(F)(F)F)cc3)nc2)C1=O [Example 13, (3R)-3-amino-7-[5-(2,2-difluoromorpholin-4-yl)-1,2,4-oxadiazol-3-yl]-8-fluoro-1,1-dioxo-5-[[6-[4-(trifluoromethyl)phenyl]-3-pyridyl]methyl]-2,3-dihydro-1λ^6,5-benzothiazepin-4-one] | > 62.5 | 769 | 26 | > 10000
N[C@H]1CS(=O)(=O)c2cc(F)c(-c3noc(N4CCOC5(CC5)C4)n3)cc2N(Cc2ccc(-c3noc(C(F)(F)F)n3)nc2)C1=O [Example 14, (3R)-3-amino-8-fluoro-7-[5-(4-oxa-7-azaspiro[2.5]octan-7-yl)-1,2,4-oxadiazol-3-yl]-1,1-dioxo-5-[[6-[5-(trifluoromethyl)-1,2,4-oxadiazol-3-yl]-3-pyridyl]methyl]-2,3-dihydro-1λ^6,5-benzothiazepin-4-one] | 36.9 | 144 | 93 | 3990
N#CC1(c2nc(-c3cc4c(cc3F)S(=O)(=O)C[C@H](N)C(=O)N4Cc3ccc(-c4noc(C(F)(F)F)n4)cc3)no2)CC1 [Example 16, 1-[3-[(3R)-3-amino-8-fluoro-1,1,4-trioxo-5-[[4-[5-(trifluoromethyl)-1,2,4-oxadiazol-3-yl]phenyl]methyl]-2,3-dihydro-1λ^6,5-benzothiazepin-7-yl]-1,2,4-oxadiazol-5-yl]cyclopropanecarbonitrile] | 1.74 | 281 | 315 | 368
N#CC1(c2nc(-c3cc4c(cc3F)S(=O)(=O)C[C@H](N)C(=O)N4Cc3ccc(-c4ccc(C(F)(F)F)cn4)cc3)no2)CC1 [Example 17] | 3.21 | 464 | 221 | 1540
N[C@H]1CS(=O)(=O)c2cc(F)c(-c3noc(C4(CO)CCCO4)n3)cc2N(Cc2ccc(-c3noc(C(F)(F)F)n3)cc2)C1=O (stereo partly drawn) [Example 18, (3R)-3-amino-8-fluoro-7-[5-[2-(hydroxymethyl)tetrahydrofuran-2-yl]-1,2,4-oxadiazol-3-yl]-1,1-dioxo-5-[[4-[5-(trifluoromethyl)-1,2,4-oxadiazol-3-yl]phenyl]methyl]-2,3-dihydro-1λ^6,5-benzothiazepin-4-one] | 3.87 | 151 | 529 | 849
CC(C)(C)c1nnc(-c2ccc(CN3C(=O)[C@@H](N)CS(=O)(=O)c4ccc(-c5nnc(C(C)(C)C)o5)cc43)cc2)o1 [Example 19, (3R)-3-amino-7-(5-tert-butyl-1,3,4-oxadiazol-2-yl)-5-[[4-(5-tert-butyl-1,3,4-oxadiazol-2-yl)phenyl]methyl]-1,1-dioxo-2,3-dihydro-1λ^6,5-benzothiazepin-4-one] | 18.2 | 783 | 40 | > 10000
Cc1cc(C)n(-c2ccc(CN3C(=O)[C@@H](N)CS(=O)(=O)c4ccc(-c5nnc(C(C)(C)C)o5)cc43)cc2)n1 [Example 22, (3R)-3-amino-7-(5-tert-butyl-1,3,4-oxadiazol-2-yl)-5-[[4-(3,5-dimethylpyrazol-1-yl)phenyl]methyl]-1,1-dioxo-2,3-dihydro-1λ^6,5-benzothiazepin-4-one] | 1.86 | 1090 | 75 | 4580
CC(C)(C)c1nnc(-c2ccc3c(c2)N(Cc2ccc(-c4nnc(C(F)(F)F)o4)cc2)C(=O)[C@@H](N)CS3(=O)=O)o1 [Example 24, (3R)-3-amino-7-(5-tert-butyl-1,3,4-oxadiazol-2-yl)-1,1-dioxo-5-[[4-[5-(trifluoromethyl)-1,3,4-oxadiazol-2-yl]phenyl]methyl]-2,3-dihydro-1λ^6,5-benzothiazepin-4-one] | 9.86 | 1440 | 131 | 1060
CC(N)(c1nnc(-c2ccc3c(c2)N(Cc2ccc(-c4noc(C(F)(F)F)n4)cc2)C(=O)[C@@H](N)CS3(=O)=O)o1)C(F)(F)F (stereo partly drawn) [Example 32, (3R)-3-amino-7-[5-(1-amino-2,2,2-trifluoro-1-methyl-ethyl)-1,3,4-oxadiazol-2-yl]-1,1-dioxo-5-[[4-[5-(trifluoromethyl)-1,2,4-oxadiazol-3-yl]phenyl]methyl]-2,3-dihydro-1λ^6,5-benzothiazepin-4-one] | 39.4 | 1740 | 321 | 1920
CC(C)(C)C(N)c1nnc(-c2ccc3c(c2)N(Cc2ccc(-c4noc(C(F)(F)F)n4)cc2)C(=O)[C@@H](N)CS3(=O)=O)o1 (stereo partly drawn) [Example 34, (3R)-3-amino-7-[5-(1-amino-2,2-dimethyl-propyl)-1,3,4-oxadiazol-2-yl]-1,1-dioxo-5-[[4-[5-(trifluoromethyl)-1,2,4-oxadiazol-3-yl]phenyl]methyl]-2,3-dihydro-1λ^6,5-benzothiazepin-4-one] | 12.2 | 1670 | 69 | 4900
CC(C#N)c1nnc(-c2ccc3c(c2)N(Cc2ccc(-c4noc(C(F)(F)F)n4)cc2)C(=O)[C@@H](N)CS3(=O)=O)o1 (stereo partly drawn) [Example 35, 2-[5-[(3R)-3-amino-1,1,4-trioxo-5-[[4-[5-(trifluoromethyl)-1,2,4-oxadiazol-3-yl]phenyl]methyl]-2,3-dihydro-1λ^6,5-benzothiazepin-7-yl]-1,3,4-oxadiazol-2-yl]propanenitrile] | 10.1 | 3060 | 193 | 2150
N[C@H]1CS(=O)(=O)c2ccc(-c3nnc(C4(C5CC5)CCCO4)o3)cc2N(Cc2ccc(-c3noc(C(F)(F)F)n3)cc2)C1=O (stereo partly drawn) [Example 36, (3R)-3-amino-7-[5-(2-cyclopropyl-tetrahydrofuran-2-yl)-1,3,4-oxadiazol-2-yl]-1,1-dioxo-5-[[4-[5-(trifluoromethyl)-1,2,4-oxadiazol-3-yl]phenyl]methyl]-2,3-dihydro-1λ^6,5-benzothiazepin-4-one] | 2.6 | 956 | 223 | 616
COC(F)(c1nnc(-c2ccc3c(c2)N(Cc2ccc(-c4noc(C(F)(F)F)n4)cc2)C(=O)[C@@H](N)CS3(=O)=O)o1)C(F)(F)F (stereo partly drawn) [Example 37, (3R)-3-amino-1,1-dioxo-7-[5-(1,2,2,2-tetrafluoro-1-methoxy-ethyl)-1,3,4-oxadiazol-2-yl]-5-[[4-[5-(trifluoromethyl)-1,2,4-oxadiazol-3-yl]phenyl]methyl]-2,3-dihydro-1λ^6,5-benzothiazepin-4-one] | 2 | 8830 | 198 | 338
CC(C)(C#N)c1nnc(-c2ccc3c(c2)N(Cc2ccc(-c4noc(C(F)(F)F)n4)cc2)C(=O)[C@@H](N)CS3(=O)=O)o1 [Example 38, 2-[5-[(3R)-3-amino-1,1,4-trioxo-5-[[4-[5-(trifluoromethyl)-1,2,4-oxadiazol-3-yl]phenyl]methyl]-2,3-dihydro-1λ^6,5-benzothiazepin-7-yl]-1,3,4-oxadiazol-2-yl]-2-methyl-propanenitrile] | 9.77 | 1140 | 311 | 3110
N[C@H]1CS(=O)(=O)c2ccc(-c3nnc(C4(N)CCCCC4)o3)cc2N(Cc2ccc(-c3noc(C(F)(F)F)n3)cc2)C1=O [Example 39, (3R)-3-amino-7-[5-(1-aminocyclohexyl)-1,3,4-oxadiazol-2-yl]-1,1-dioxo-5-[[4-[5-(trifluoromethyl)-1,2,4-oxadiazol-3-yl]phenyl]methyl]-2,3-dihydro-1λ^6,5-benzothiazepin-4-one] | 19 | 1780 | 143 | 622
N[C@H]1CS(=O)(=O)c2ccc(-c3nnc(C4(N)CCCCC4)o3)cc2N(Cc2ccc(-c3ccc(C(F)(F)F)cn3)cc2)C1=O [Example 41, (3R)-3-amino-7-[5-(1-aminocyclohexyl)-1,3,4-oxadiazol-2-yl]-1,1-dioxo-5-[[4-[5-(trifluoromethyl)-2-pyridyl]phenyl]methyl]-2,3-dihydro-1λ^6,5-benzothiazepin-4-one] | 30.6 | 3240 | 66 | 3340
